From US12187712B2, “Cardiac sarcomere inhibitors” (Cytokinetics, Inc., priority 2018, dated 2025)

Target: T1, bovine cardiac myofibrils (Bos taurus, UniProt Q9BE39)
T1 construct: full-length cardiac myosin in the context of the native sarcomere, skinned myofibril assays were performed; from tissue; host or cells: bovine cardiac left ventricular tissue, detergent-skinned (Triton X-100) myofibrils
Experiment: Skinned myofibril ATPase assay (PK/LDH-coupled), CDMF75
Assay type: biochemical
Details: inhibition of steady-state ATPase activity of bovine cardiac myofibrils at 75% Ca2+ activation (pCa75)
Method: To evaluate the effect of compounds on the ATPase activity of full-length cardiac myosin in the context of the native sarcomere, skinned myofibril assays were performed. Bovine cardiac myofibrils were obtained by homogenizing bovine cardiac left ventricular tissue in the presence of a detergent such as triton X-100. Such treatment removes membranes and a majority of the soluble cytoplasmic proteins but leaves intact the cardiac sarcomeric acto-myosin apparatus. Myofibril preparations retain the ability to hydrolyze ATP in an Ca^2+ regulated manner. ATPase activities of such myofibril preparations in the presence and absence of compounds were assayed at Ca^2+ concentrations activating to a defined fraction of the maximal rate (i.e., 25%, 75%). Small molecule agents were assessed for their ability to inhibit the steady-state ATPase activity of bovine cardiac myofibrils using pyruvate kinase and lactate dehydrogenase (PK/LDH)-coupled enzyme system. This assay regenerates myosin-produced ADP into ATP by oxidizing NADH, producing an absorbance change at 340 nm. Prior to testing small molecule agents, the bovine cardiac myofibrils were assessed for their calcium responsiveness and the calcium concentration that achieves either a 50% (pCa50) or 75% (pCa75) activation of the myofibril system was chosen as the final condition for assessing the inhibitory activity of the small molecule agents. All enzymatic activity was measured in a buffered solution containing 12 mM PIPES (piperazine-N,N′-bis(2-ethanesulfonic acid), 2 mM magnesium chloride at pH 6.8 (PM 12 buffer). Final assay conditions were 1 mg/mL of bovine cardiac myofibrils, 4 U/mL pyruvate kinase, 6 U/mL lactate dehydrogenase, 50 μM ATP, 0.1 mg/mL BSA (bovine serum albumin), 10 ppm antifoam, 1 mM DTT, 0.5 mM NADH, 1.5 mM PEP, 0.6 mM EGTA, and an amount of CaCl2 sufficient to achieve either 50% or 75% activation of the myofibril ATPase activity. Results for compounds tested are provided in Table A. Compounds tested were prepared in accordance with the synthetic procedures described herein.

T1 sequence (Q9BE39 whole entry): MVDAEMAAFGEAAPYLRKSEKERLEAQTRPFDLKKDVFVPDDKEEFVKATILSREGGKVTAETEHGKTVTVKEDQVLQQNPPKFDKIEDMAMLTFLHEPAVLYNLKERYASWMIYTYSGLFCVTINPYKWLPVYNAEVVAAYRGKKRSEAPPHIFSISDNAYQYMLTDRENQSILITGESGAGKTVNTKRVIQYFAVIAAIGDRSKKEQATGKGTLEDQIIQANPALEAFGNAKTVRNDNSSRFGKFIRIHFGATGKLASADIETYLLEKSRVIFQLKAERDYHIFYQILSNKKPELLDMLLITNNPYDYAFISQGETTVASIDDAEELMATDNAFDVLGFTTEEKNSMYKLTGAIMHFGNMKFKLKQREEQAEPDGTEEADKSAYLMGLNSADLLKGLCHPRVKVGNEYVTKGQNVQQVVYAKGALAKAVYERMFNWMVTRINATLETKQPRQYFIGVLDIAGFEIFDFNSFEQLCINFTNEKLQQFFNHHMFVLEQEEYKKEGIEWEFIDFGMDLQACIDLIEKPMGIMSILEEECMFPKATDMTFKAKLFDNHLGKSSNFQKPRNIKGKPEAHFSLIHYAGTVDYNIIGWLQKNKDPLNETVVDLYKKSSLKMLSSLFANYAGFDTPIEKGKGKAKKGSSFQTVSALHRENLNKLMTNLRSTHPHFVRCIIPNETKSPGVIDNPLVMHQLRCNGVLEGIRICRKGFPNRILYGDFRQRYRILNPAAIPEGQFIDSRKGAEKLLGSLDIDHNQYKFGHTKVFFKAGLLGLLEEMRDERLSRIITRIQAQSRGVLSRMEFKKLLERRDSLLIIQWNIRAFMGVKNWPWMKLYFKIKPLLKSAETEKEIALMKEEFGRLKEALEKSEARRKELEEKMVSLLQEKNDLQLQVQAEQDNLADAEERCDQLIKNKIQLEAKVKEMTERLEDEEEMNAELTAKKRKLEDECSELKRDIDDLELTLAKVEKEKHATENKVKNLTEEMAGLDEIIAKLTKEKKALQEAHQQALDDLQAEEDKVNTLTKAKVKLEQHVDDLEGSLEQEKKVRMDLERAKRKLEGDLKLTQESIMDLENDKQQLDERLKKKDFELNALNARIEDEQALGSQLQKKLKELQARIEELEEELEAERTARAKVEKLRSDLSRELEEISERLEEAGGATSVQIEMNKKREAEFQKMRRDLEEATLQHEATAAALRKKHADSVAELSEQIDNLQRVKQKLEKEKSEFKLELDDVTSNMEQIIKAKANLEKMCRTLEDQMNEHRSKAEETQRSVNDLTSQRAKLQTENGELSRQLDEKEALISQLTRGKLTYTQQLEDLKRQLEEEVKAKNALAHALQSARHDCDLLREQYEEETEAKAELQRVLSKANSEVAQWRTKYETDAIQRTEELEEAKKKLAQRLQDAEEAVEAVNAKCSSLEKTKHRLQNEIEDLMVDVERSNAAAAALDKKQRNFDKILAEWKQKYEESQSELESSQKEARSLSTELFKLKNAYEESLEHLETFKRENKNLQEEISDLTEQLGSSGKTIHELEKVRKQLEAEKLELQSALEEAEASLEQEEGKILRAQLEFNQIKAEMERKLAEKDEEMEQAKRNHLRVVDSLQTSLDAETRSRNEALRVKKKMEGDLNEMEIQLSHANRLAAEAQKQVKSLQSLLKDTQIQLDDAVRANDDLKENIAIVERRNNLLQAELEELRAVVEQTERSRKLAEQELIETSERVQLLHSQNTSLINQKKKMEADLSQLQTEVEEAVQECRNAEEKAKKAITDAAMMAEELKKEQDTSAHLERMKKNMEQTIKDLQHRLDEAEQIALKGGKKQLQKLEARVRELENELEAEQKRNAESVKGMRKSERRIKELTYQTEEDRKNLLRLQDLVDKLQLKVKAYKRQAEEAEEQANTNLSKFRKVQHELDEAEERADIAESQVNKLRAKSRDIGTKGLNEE
T1 sequence (P85100 whole entry partner): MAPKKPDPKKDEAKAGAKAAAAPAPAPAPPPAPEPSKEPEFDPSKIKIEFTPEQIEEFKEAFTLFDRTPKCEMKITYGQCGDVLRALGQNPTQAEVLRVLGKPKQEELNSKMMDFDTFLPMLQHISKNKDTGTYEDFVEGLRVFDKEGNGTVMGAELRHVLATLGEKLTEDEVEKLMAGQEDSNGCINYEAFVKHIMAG
T1 sequence (Q3SZE5 whole entry partner): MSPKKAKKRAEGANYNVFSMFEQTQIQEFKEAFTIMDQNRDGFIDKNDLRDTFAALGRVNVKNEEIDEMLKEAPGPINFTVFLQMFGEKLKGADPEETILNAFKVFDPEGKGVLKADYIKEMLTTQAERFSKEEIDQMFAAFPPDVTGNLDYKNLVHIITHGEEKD

CDMF75 IC15 [µM] | IC50 [µM] | Structure (SMILES)
0.5 | 2.6 | COC(=O)c1nc(-c2ccc(CNc3cnccn3)cc2)no1 [Compound 30, methyl 3-(4-((pyrazin-2-ylamino)methyl)phenyl)-1,2,4-oxadiazole-5-carboxylate]
0.7 | 2.2 | Cc1nc(-c2ccc3c(c2)CCCC3Nc2cnccn2)no1 (stereo not shown) [Compound 59, N-(6-(5-methyl-1,2,4-oxadiazol-3-yl)-1,2,3,4-tetrahydronaphthalen-1-yl)pyrazin-2-amine]
7.1 | 36.5 | C[C@@H](Nc1cnccn1)c1ccc(-c2noc(C(C)(C)C)n2)cc1 [Compound 36, (R)-N-(1-(4-(5-(tert-butyl)-1,2,4-oxadiazol-3-yl)phenyl)ethyl)pyrazin-2-amine]
7.7 | > 39.2 | Cc1cc(-c2ccc(CNc3ccn(C)n3)cc2)no1 [Compound 64, 1-methyl-N-(4-(5-methylisoxazol-3-yl)benzyl)-1H-pyrazol-3-amine]
0.8 | 3.1 | FC(F)c1nc(-c2ccc(CNc3cnccn3)cc2)no1 [Compound 24, N-(4-(5-(difluoromethyl)-1,2,4-oxadiazol-3-yl)benzyl)pyrazin-2-amine]
0.3 | 1.7 | COc1cc(NCc2ccc(-c3cc(C)on3)cc2)ncn1 [Compound 66, 6-methoxy-N-(4-(5-methylisoxazol-3-yl)benzyl)pyrimidin-4-amine]
0.7 | 3.9 | Cc1nc(-c2ccc(CNc3cnccn3)cc2F)no1 [Compound 41, N-(3-fluoro-4-(5-methyl-1,2,4-oxadiazol-3-yl)benzyl)pyrazin-2-amine]
18.4 | > 39.2 | Cc1coc(-c2ccc(CNc3cnccn3)cc2)n1 [Compound 69, N-[[4-(4-methyl-1,3-oxazol-2-yl)phenyl]methyl]pyrazin-2-amine]
1.3 | 5.6 | C[C@@H](Nc1cnccn1)c1ccc(-c2noc(-c3ccccc3)n2)cc1 [Compound 37, (R)-N-(1-(4-(5-phenyl-1,2,4-oxadiazol-3-yl)phenyl)ethyl)pyrazin-2-amine]
0.3 | 28.6 | Cc1cnc(-c2ccc(CNc3cnccn3)cc2)o1 [Compound 49, N-[[4-(5-methyl-1,3-oxazol-2-yl)phenyl]methyl]pyrazin-2-amine]
0.2 | 0.9 | C[C@@H](Nc1cnccn1)c1ccc(-c2noc(-c3ccco3)n2)cc1 [Compound 39, (R)-N-(1-(4-(5-(furan-2-yl)-1,2,4-oxadiazol-3-yl)phenyl)ethyl)pyrazin-2-amine]
2.1 | 9.4 | Cc1cc(-c2ccc(CNc3cnccn3)cc2)on1 [Compound 53, N-(4-(3-methylisoxazol-5-yl)benzyl)pyrazin-2-amine]
3.1 | 19.3 | Cc1nc(-c2ccc(CNC(=O)OCc3ccccc3)cc2)no1 [Compound 57, benzyl (4-(5-methyl-1,2,4-oxadiazol-3-yl)benzyl)carbamate]
0.4 | 1.8 | c1cnc(NCc2ccc(-c3noc(C4CC4)n3)cc2)cn1 [Compound 22, N-(4-(5-cyclopropyl-1,2,4-oxadiazol-3-yl)benzyl)pyrazin-2-amine]
0.3 | 1.5 | Cc1nc(-c2ccc(CNc3cnc(Cl)cn3)cc2)no1 [Compound 13, 5-chloro-N-(4-(5-methyl-1,2,4-oxadiazol-3-yl)benzyl)pyrazin-2-amine]
2.2 | 10.9 | Cc1nc(-c2ccc(CNc3ccnc(Cl)c3)cc2)no1 [Compound 44, 2-chloro-N-(4-(5-methyl-1,2,4-oxadiazol-3-yl)benzyl)pyridin-4-amine]
1.4 | 8.1 | Cc1nc(-c2ccc(CNc3cncc(Cl)n3)cc2)no1 [Compound 1, 6-chloro-N-(4-(5-methyl-1,2,4-oxadiazol-3-yl)benzyl)pyrazin-2-amine]
1.2 | 8.9 | Cc1cnc(-c2ccc(CNc3cc(Cl)ncn3)cc2)o1 [Compound 27, 6-chloro-N-(4-(5-methyloxazol-2-yl)benzyl)pyrimidin-4-amine]
 | 27 | Cc1nc(-c2ccc(CNc3cc(C4CC4)ncn3)cc2)no1 [Compound 6, 6-cyclopropyl-N-(4-(5-methyl-1,2,4-oxadiazol-3-yl)benzyl)pyrimidin-4-amine]
0.4 | 1.3 | Cc1nc(-c2ccc3c(c2)CCC3Nc2cnccn2)no1 (stereo not shown) [Compound 55, N-[5-(5-methyl-1,2,4-oxadiazol-3-yl)-2,3-dihydro-1H-inden-1-yl]pyrazin-2-amine]
0.2 | 0.9 | Cc1onc(-c2ccc(CNc3cnccn3)cc2)c1I [Compound 51, N-(4-(4-iodo-5-methylisoxazol-3-yl)benzyl)pyrazin-2-amine]
 | > 39.2 | Cc1nc(-c2ccc(CNC(=O)c3ccncc3O)cc2)no1 [Compound 63, 3-hydroxy-N-(4-(5-methyl-1,2,4-oxadiazol-3-yl)benzyl)isonicotinamide]
0.8 | 4.1 | FC(F)(F)c1nc(-c2ccc(CNc3cnccn3)cc2)no1 [Compound 70, N-(4-(5-(trifluoromethyl)-1,2,4-oxadiazol-3-yl)benzyl)pyrazin-2-amine]
1.1 | 5.6 | Cc1nc(-c2ccc(C(C)Nc3cnccn3)cc2)no1 (stereo not shown) [Compound 26, N-(1-(4-(5-methyl-1,2,4-oxadiazol-3-yl)phenyl)ethyl)pyrazin-2-amine]
0.8 | 4.8 | Fc1cc(CNc2cnccn2)ccc1-c1noc(C(F)(F)F)n1 [Compound 42, N-(3-fluoro-4-(5-(trifluoromethyl)-1,2,4-oxadiazol-3-yl)benzyl)pyrazin-2-amine]
0.3 | 1.4 | C[C@@H](Nc1cnccn1)c1ccc(-c2noc(C3CCC3)n2)cc1 [Compound 32, (R)-N-(1-(4-(5-cyclobutyl-1,2,4-oxadiazol-3-yl)phenyl)ethyl)pyrazin-2-amine]
0.4 | 2.2 | Cc1nc(-c2ccc(CNc3cnccn3)c(F)c2)no1 [Compound 46, N-(2-fluoro-4-(5-methyl-1,2,4-oxadiazol-3-yl)benzyl)pyrazin-2-amine]
1.0 | 5.5 | Cc1nc(-c2ccc(CNc3cc(C#N)ccn3)cc2)no1 [Compound 15, 2-((4-(5-methyl-1,2,4-oxadiazol-3-yl)benzyl)amino) isonicotinonitrile]
4.0 | 19 | Cc1cnc(-c2ccc(CNc3cnccn3)cc2)s1 [Compound 48, N-[[4-(5-methyl-1,3-thiazol-2-yl)phenyl]methyl]pyrazin-2-amine]
2.9 | 18.9 | Cc1nc(-c2ccc(CNc3cc(C#N)ncn3)nc2)no1 [Compound 17, 6-(((5-(5-methyl-1,2,4-oxadiazol-3-yl)pyridin-2-yl)methyl)amino)pyrimidine-4-carbonitrile]
